Test results from patent publication US10286000B2, “Retinoid X receptor-gamma agonists and retinoid X receptor-alpha antagonists for treatment of cancer” (St. Jude Children's Research Hospital, Inc., priority 2013, dated 2019).
Entries after “also recorded” stand apart in the source; their conditions may differ.

Key:
[1] = tested on: NKG2DL (MICA-B, ULBP1-3) surface expression; test: flow cytometry of NKG2DL cell surface expression in cancer cell lines; type: cell-based, human; settings: for NKG2DL expression, compound alone: HCT116 cells, 3 days; for effect of co-treatment on SPIR's upregulation of NKG2DLs: HCT116, SPIR 56 μM 3 days, HX531 10 μM, caffeine 1.5 mM, wortmannin 10 μM, KU55933 10 μM, VE-821 10 μM
Experimental: Data are representative of five independent experiments. […] Controls were stained with APC-conjugated anti-human Fc antibody alone without preincubation with NKG2D-Fc. Data are representative of three independent experiments. […] Results are representative of two independent experiments. […] (E) NKG2DL mRNA expression in the colon cancer cell lines was analyzed by qRT-PCR analysis. Data are normalized to GAPDH mRNA levels and are presented as fold-change relative to the expression in DMSO-treated cells (n=5). (F) Lentiviral-based luciferase reporter construct containing the putative ULBP2 promoter (−2415 to 0 bp from the transcription start site: 73 bp upstream of ATG) was transduced into the colon cancer cell lines. Positively transduced cells were selected by puromycin treatment (2 μg/ml) for 2 weeks. […] Data shown are expressed as fold-change relative to the luciferase activity observed in DMSO-treated cells (n=3). * P<0.05, ** P<0.01.
(§1) Cell lines were stained with allophycocyanin-conjugated anti-MICA, anti-MICB, or anti-ULBP2 antibodies for 20 min at 4° C. For ULBP1 and ULBP3 staining, cells were first incubated with anti-ULBP1 and anti-ULBP3 antibodies and then with allophycocyanin-conjugated goat anti-mouse IgG antibody. To analyze total NKG2DL cell surface expression, cells were first incubated with human NKG2D-Fc for 20 min at 4° C. and then with allophycocyanin-conjugated mouse anti-human IgG (Fc) antibody. Cells were washed and analyzed on a C6 flow cytometer (Accuri). Data were analyzed using FlowJo software (TreeStar).

[2] = tested on: TIMP2 and TIMP3; test: qRT-PCR of TIMP2 and TIMP3 mRNA; type: cell-based, human; settings: HCT116 cells, 3 days
Experimental: (§2) The number of cells that invaded the ECM was determined after 24 h. Data are expressed as percentage change in tumor invasion relative to that of DMSO-treated cells (n=3). (D) Wound healing by DMSO- and SPIR-treated HCT116, HT29, and CAL27 cells was compared. Data are calculated as the percentage change in distance of migration relative to that of DMSO-treated cells (n=3). […] Tumor xenografts and lung metastases were detected by bioluminescence imaging on day 25. Data are shown as the average total flux (photons/second)±standard deviation (n=8). (F) The lung metastases (arrows) were confirmed by examining lung tissue sections. * P≤0.05, ** P<0.01, *** P<0.005, **** P<0.0001.
For qRT-PCR, total RNA was extracted from untreated or drug-treated tumor cells by using the RNA Clean & Concentrator (Zymo Research). All cDNA was generated by using the SuperScript VILO cDNA Synthesis kit (Life Technologies) and diluted 10-fold for analysis using the 7900HT Fast Real-time PCR System (Applied Biosystems). The data were calculated as the CT of target genes normalized to the CT of GAPDH of each sample. Primer sequences of the target genes were: MICA-F: 5′-[…]-3′, (SEQ ID NO: 14) MICA-R: 5′-[…]-[…]-3′, (SEQ ID NO: 15) MICB-F: 5′-[…]-3′, (SEQ ID NO: 16) MICB-R:5′-CCCTC-[…]-3′, (SEQ ID NO: 17), ULBP1-F:5′-[…]-3′, (SEQ ID NO: 18), ULBP1-R:5′-[…]-3′, (SEQ ID NO: 19), ULBP2-F:5′-[…]-3′, (SEQ ID NO: 20), ULBP2-R:5′-[…]-3′, (SEQ ID NO: 21), ULBP3-F:5′-[…]-TTCG-3′, (SEQ ID NO: 22), ULBP3-R:[…]-3′, (SEQ ID NO: 23), TIMP2-F:5′-[…]-[…]-3′, (SEQ ID NO: 24), TIMP2-R:[…]-3′, (SEQ ID NO: 25), TIMP3-F:5′-[…]-3′, (SEQ ID NO: 26), TIMP3-R:5′-[…]-[…]-3′ (SEQ ID NO: 27), GAPDH-F: 5′-[…]3′ (SEQ ID NO: 28), GAPDH-R: 5′-G-[…]-3′ (SEQ ID NO: 29). […] Differentially expressed transcripts were analyzed by ANOVA on Spotfire program.

[3] = tested on: HCT116, HT29, and CAL27 cells; test: in vitro cell invasion assay (ECM-coated Transwell); type: cell-based, human; settings: HCT116 cells
Experimental: as §2
The invasiveness of the tumor cells was determined by using the CytoSelect 96-well Cell Invasion Assay with Basement Membrane (Cell Biolabs) according to the manufacturer instructions.

[4] = tested on: HCT116, HT29, and CAL27 cells; test: wound-healing assay; type: cell-based, human; settings: HCT116 cells
Experimental: as §2
Confluent cell layers of CAL27 and HT29 cells with a 500 μm±50 μm gap were formed by using Ibidi culture inserts (RPI Corp.). Gap distances were measured at various times using a Nikon Eclipse Ti inverted microscope and NIS-Elements software (Nikon).

[5] = tested on: 47 NHRs in HCT116 cells; test: human nuclear hormone receptor siRNA library / siRNA knockdown, NKG2DL expression by NKG2D-Fc staining; type: cell-based
Experimental: as §1
For the transfection study, 2×10^5 cells were transfected with 60 pmol of siRNA molecules using lipofectamine RNAiMAX according to the manufacturer's instructions (Invitrogen).
Consistent with previous reports, RXR-gamma was constitutively expressed in HCT116 cells (FIG. 5C) (Papi et al. 2010. Cancer Lett 297:65-74). Expression of RXR-gamma mRNA was also observed in all other cell lines tested. (FIG. 5D).

CC1=C(/C=C/C(C)=C\C=C\C(C)=C\C(=O)O)C(C)(C)CCC1 [9-cis-RA, 9-cis-retinoic acid]
NKG2DL expression, compound alone [1]: did not induce the upregulation of NKG2DL expression; also recorded: decrease was observed

CN1c2ccc([N+](=O)[O-])cc2N=C(c2ccc(C(=O)O)cc2)c2cc3c(cc21)C(C)(C)CCC3(C)C [HX531]
effect of co-treatment on SPIR's upregulation of NKG2DLs [1]: significantly reduced

O=c1cc(-c2cccc3c2Sc2ccccc2S3)oc(N2CCOCC2)c1 [KU55933]
effect of co-treatment on SPIR's upregulation of NKG2DLs [1]: completely abolished

CS(=O)(=O)c1ccc(-c2cnc(N)c(C(=O)Nc3ccccc3)n2)cc1 [VE-821]
effect of co-treatment on SPIR's upregulation of NKG2DLs [1]: only partially reduced
effect of co-treatment on NKG2DL expression at increased concentration ([1]; HCT116, SPIR 56 μM, VE-821 20 μM): did not further affect NKG2DL expression

Cn1c(=O)c2c(ncn2C)n(C)c1=O [caffeine]
effect of co-treatment on SPIR's upregulation of NKG2DLs [1]: completely abolished

C[C@]12CCC(=O)C=C1C=C[C@@H]1[C@@H]2CC[C@@]2(C)[C@H]1CC[C@@]21CCC(=O)O1 [canrenone]
NKG2DL expression, compound alone [1]: did not reproduce the phenotypes of enhanced expression of NKG2DL
TIMP2 expression [2]: neither canrenone nor eplerenone upregulated TIMP2 expression
cell invasion, MR antagonists vs SPIR [3]: did not reproduce the suppressive effect of SPIR
cell migration, MR antagonists vs SPIR [4]: did not reproduce the suppressive effect of SPIR

COC(=O)[C@@H]1CC2=CC(=O)CC[C@]2(C)[C@@]23O[C@@H]2C[C@@]2(C)[C@@H](CC[C@@]24CCC(=O)O4)[C@H]13 [eplerenone]
NKG2DL expression, compound alone [1]: did not reproduce the phenotypes of enhanced expression of NKG2DL
TIMP2 expression [2]: neither canrenone nor eplerenone upregulated TIMP2 expression
cell invasion, MR antagonists vs SPIR [3]: did not reproduce the suppressive effect of SPIR
cell migration, MR antagonists vs SPIR [4]: did not reproduce the suppressive effect of SPIR

RXR-alpha siRNA: siRNA targeting RXR-alpha, ThermoScientific Cat No. D-003443-06; GGGAGAAGGUCUAUGCGUC (listed as RNA, chemistry not given here)
NKG2DL expression after gene knockdown without drug treatment [5]: enhances the expression of NKG2DLs; also recorded: increase of NKG2DL expression
SPIR-mediated NKG2DL upregulation after siRNA knockdown [5]: did not affect the potential of SPIR in upregulating NKG2DL expression
